Results published in US5332731A, “Cephalosporin derivatives” (Meiji Seika Kaisha, Ltd., priority 1989, dated 1994).
≈ marks a conversion by molar mass, not a printed value.

Tests used:
Assay in all cases: antibacterial activity, MIC by standard serial dilution method
Assay type in all cases: cell-based
[1] = test system: Citrobacter freundii GN346/16
Excerpt: (§1) Antibacterial activity of Compounds Nos. 1, 3, 5, 7, 9, 11, 13, 15, 17, 19, 21, 23, 25, 27, 29, 31, 33, 35 and 37 indentified hereinbefore which are the particular examples of the new cephalosporin derivative of general formula (I) according to this invention and which are in the form of the free carboxylic acid was estimated by determining the minimum inhibitory concentrations (MIC., μg/ml) of these compounds against a variety of bacteria according to a standard serial dilution method.

[2] = test system: Citrobacter freundii GN346
Excerpt: as §1

[3] = test system: Enterobacter cloacae G-0008; conditions: G0008
Excerpt: as §1

[4] = test system: Enterobacter cloacae GN7471
Excerpt: as §1

[5] = test system: Enterobacter hirae ATCC8043
Excerpt: as §1

[6] = test system: Entrobacter faecalis W-73
Excerpt: as §1

Escherichia coli 255/S-1 = conditions: 255/S1
Excerpt: as §1

Escherichia coli 255 = test system: Escherichia coli 255
Excerpt: as §1

Escherichia coli GN206 = test system: Escherichia coli GN206
Excerpt: as §1

[7] = test system: Escherichia coli NIHJ JC-2; conditions: NIHJJC2
Excerpt: as §1

[8] = test system: Escherichia coli W3630 RGN823; conditions: W3630RGN823
Excerpt: as §1

[9] = test system: Klebsiella pneumoniae GN69
Excerpt: as §1

[10] = test system: Klebsiella pneumoniae PCI602
Excerpt: as §1

[11] = test system: Marganella morganii 1510/S-1
Excerpt: as §1

Marganella morganii 1510 = test system: Marganella morganii 1510
Excerpt: as §1

[12] = test system: Proteus vulgaris GN76/C-1
Excerpt: as §1

Proteus vulgaris GN76 = test system: Proteus vulgaris GN76
Excerpt: as §1

[13] = test system: Pseudomonas aeruginosa GN10362
Excerpt: as §1

[14] = test system: Serratia marcescens GN10857
Excerpt: as §1

[15] = test system: Serratia marcescens No. 1
Excerpt: as §1

[16] = test system: Staphylococcus aureus 209P JC-1
Excerpt: as §1

[17] = test system: Staphylococcus epidermidis ATCC14990
Excerpt: as §1

Row | SMILES | MIC [1] | MIC [2] | MIC [3] | MIC [4] | MIC [5] | MIC [6] | MIC (Escherichia coli 255/S-1) | MIC (Escherichia coli 255) | MIC (Escherichia coli GN206) | MIC [7] | MIC [8] | MIC [9] | MIC [10] | MIC [11] | MIC (Marganella morganii 1510) | MIC [12] | MIC (Proteus vulgaris GN76) | MIC [13] | MIC [14] | MIC [15] | also measured
1 | CO/N=C(\C(=O)NC1C(=O)N2C(C(=O)O)=C(SCC3COCO3)CS[C@H]12)c1csc(N)n1 (stereo partly drawn) [Compound No. 29, 7 - [(Z)-2-(2-aminothiazol-4-yl)-2-methoxyiminoacetamido]-3-(1,3-dioxolan-4-yl)methylthio-3-cephem-4-carboxylic acid] | 3.13 µg/mL (≈ 6.24 µM) | > 100 µg/mL | 0.39 µg/mL (≈ 0.778 µM) | 50 µg/mL (≈ 99.7 µM) | > 100 µg/mL | > 100 µg/mL | 0.39 µg/mL (≈ 0.778 µM) | 50 µg/mL (≈ 99.7 µM) | 6.25 µg/mL (≈ 12.5 µM) | 0.39 µg/mL (≈ 0.778 µM) | 0.78 µg/mL (≈ 1.56 µM) | 0.2 µg/mL (≈ 0.399 µM) | 0.2 µg/mL (≈ 0.399 µM) | 0.39 µg/mL (≈ 0.778 µM) | 50 µg/mL (≈ 99.7 µM) | 6.25 µg/mL (≈ 12.5 µM) | 0.1 µg/mL (≈ 0.199 µM) | > 100 µg/mL | 50 µg/mL (≈ 99.7 µM) | 3.13 µg/mL (≈ 6.24 µM) | MIC [16]: 1.56 µg/mL (≈ 3.11 µM); MIC [17]: 0.78 µg/mL (≈ 1.56 µM)
2 | CO/N=C(\C(=O)NC1C(=O)N2C(C(=O)O)=C(SCC3CCOC(C)(C)O3)CS[C@H]12)c1csc(N)n1 (stereo partly drawn) [Compound No. 9, 7-[(Z)-2-(2-aminothiazol-4-yl)-2-methoxyiminoacetamido]-3-(2,2-dimethyl-1,3-dioxan-4-yl)methylthio-3-cephem-4-carboxylic acid] | 6.25 µg/mL (≈ 11.5 µM) | > 100 µg/mL | 3.13 µg/mL (≈ 5.76 µM) | 50 µg/mL (≈ 92 µM) | 25 µg/mL (≈ 46 µM) | 100 µg/mL (≈ 184 µM) | 6.25 µg/mL (≈ 11.5 µM) | 100 µg/mL (≈ 184 µM) | 12.5 µg/mL (≈ 23 µM) | 3.13 µg/mL (≈ 5.76 µM) | 1.56 µg/mL (≈ 2.87 µM) | 1.56 µg/mL (≈ 2.87 µM) | 3.13 µg/mL (≈ 5.76 µM) | 1.56 µg/mL (≈ 2.87 µM) | 100 µg/mL (≈ 184 µM) | 3.13 µg/mL (≈ 5.76 µM) | 0.78 µg/mL (≈ 1.43 µM) | > 100 µg/mL | 50 µg/mL (≈ 92 µM) | 3.13 µg/mL (≈ 5.76 µM) | MIC [16]: 1.56 µg/mL (≈ 2.87 µM); MIC [17]: 1.56 µg/mL (≈ 2.87 µM)
3 | CO/N=C(\C(=O)NC1C(=O)N2C(C(=O)O)=C(SC3COCOC3)CSC12)c1csc(N)n1 (stereo not drawn) [Compound No. 19] | 3.13 µg/mL (≈ 6.24 µM) | > 100 µg/mL | 0.39 µg/mL (≈ 0.778 µM) | 50 µg/mL (≈ 99.7 µM) | 25 µg/mL (≈ 49.8 µM) | 100 µg/mL (≈ 199 µM) | 0.39 µg/mL (≈ 0.778 µM) | 25 µg/mL (≈ 49.8 µM) | 3.13 µg/mL (≈ 6.24 µM) | 0.39 µg/mL (≈ 0.778 µM) | 0.78 µg/mL (≈ 1.56 µM) | 0.2 µg/mL (≈ 0.399 µM) | < 0.025 µg/mL | 0.1 µg/mL (≈ 0.199 µM) | 12.5 µg/mL (≈ 24.9 µM) | 1.56 µg/mL (≈ 3.11 µM) | 0.05 µg/mL (≈ 0.0997 µM) | > 100 µg/mL | 50 µg/mL (≈ 99.7 µM) | 0.78 µg/mL (≈ 1.56 µM) | MIC [16]: 0.39 µg/mL (≈ 0.778 µM); MIC [17]: 0.78 µg/mL (≈ 1.56 µM)
4 | CO/N=C(\C(=O)NC1C(=O)N2C(C(=O)O)=C(SCC3COC(C)(C)O3)CS[C@H]12)c1csc(N)n1 (stereo partly drawn) [Compound No. 5, 7-[(Z)-2-(2-aminothiazol-4-yl)-2-methoxyiminoacetamido]-3-(2,2-dimethyl-1,3-dioxolan-4-yl)methylthio-3-cephem-4-carboxylic acid] | 6.25 µg/mL (≈ 11.8 µM) | > 100 µg/mL | 3.13 µg/mL (≈ 5.91 µM) | 50 µg/mL (≈ 94.4 µM) | 25 µg/mL (≈ 47.2 µM) | 50 µg/mL (≈ 94.4 µM) | 3.13 µg/mL (≈ 5.91 µM) | 100 µg/mL (≈ 189 µM) | 12.5 µg/mL (≈ 23.6 µM) | 1.56 µg/mL (≈ 2.95 µM) | 1.56 µg/mL (≈ 2.95 µM) | 0.78 µg/mL (≈ 1.47 µM) | 1.56 µg/mL (≈ 2.95 µM) | 0.78 µg/mL (≈ 1.47 µM) | 100 µg/mL (≈ 189 µM) | 1.56 µg/mL (≈ 2.95 µM) | 0.39 µg/mL (≈ 0.736 µM) | > 100 µg/mL | 50 µg/mL (≈ 94.4 µM) | 1.56 µg/mL (≈ 2.95 µM) | MIC [16]: 1.56 µg/mL (≈ 2.95 µM); MIC [17]: 1.56 µg/mL (≈ 2.95 µM)
5 | CO/N=C(\C(=O)NC1C(=O)N2C(C(=O)O)=C(SC3CCOCC3)CS[C@H]12)c1csc(N)n1 (stereo partly drawn) [Compound No. 7, 7-[(Z)-2-(2-aminothiazol-4-yl)-2-methoxyiminoacetamido]-3-(tetrahydropyran-4-yl)thio-3-cephem-4-carboxylic acid] | 6.25 µg/mL (≈ 12.5 µM) | > 100 µg/mL | 0.78 µg/mL (≈ 1.56 µM) | 50 µg/mL (≈ 100 µM) | 6.25 µg/mL (≈ 12.5 µM) | > 100 µg/mL | 0.78 µg/mL (≈ 1.56 µM) | 50 µg/mL (≈ 100 µM) | 12.5 µg/mL (≈ 25 µM) | 0.78 µg/mL (≈ 1.56 µM) | 1.56 µg/mL (≈ 3.12 µM) | 0.78 µg/mL (≈ 1.56 µM) | 0.39 µg/mL (≈ 0.781 µM) | 0.2 µg/mL (≈ 0.4 µM) | 50 µg/mL (≈ 100 µM) | 0.78 µg/mL (≈ 1.56 µM) | 0.2 µg/mL (≈ 0.4 µM) | > 100 µg/mL | 100 µg/mL (≈ 200 µM) | 0.78 µg/mL (≈ 1.56 µM) | MIC [16]: 0.78 µg/mL (≈ 1.56 µM); MIC [17]: 0.39 µg/mL (≈ 0.781 µM)
6 | CO/N=C(\C(=O)NC1C(=O)N2C(C(=O)O)=C(SCC3CCOC3)CS[C@H]12)c1csc(N)n1 (stereo partly drawn) [Compound No. 27, 7-[(Z)-2-(2-aminothiazol-4-yl)-2-methoxyiminoacetamido]-3-(tetrahydrofuran-3-yl)methylthio-3-cephem-4-carboxylic acid] | 3.13 µg/mL (≈ 6.27 µM) | > 100 µg/mL | 0.78 µg/mL (≈ 1.56 µM) | 50 µg/mL (≈ 100 µM) | > 100 µg/mL | 100 µg/mL (≈ 200 µM) | 0.78 µg/mL (≈ 1.56 µM) | 50 µg/mL (≈ 100 µM) | 6.25 µg/mL (≈ 12.5 µM) | 0.78 µg/mL (≈ 1.56 µM) | 0.78 µg/mL (≈ 1.56 µM) | 0.2 µg/mL (≈ 0.4 µM) | 0.39 µg/mL (≈ 0.781 µM) | 0.39 µg/mL (≈ 0.781 µM) | 25 µg/mL (≈ 50 µM) | 6.25 µg/mL (≈ 12.5 µM) | 0.2 µg/mL (≈ 0.4 µM) | > 100 µg/mL | 50 µg/mL (≈ 100 µM) | 3.13 µg/mL (≈ 6.27 µM) | MIC [16]: 1.56 µg/mL (≈ 3.12 µM); MIC [17]: 0.78 µg/mL (≈ 1.56 µM)
